Values joined by “and” are separate entries in the source; they are usually repeats but may differ in a detail not shown here. Identical values can stand only once. Toxic doses and inconclusive results are not listed. No stated cut-off is given here; in the data, active means T/C of 150% or more; inactive means T/C below 125%.
Tested on: L1210 leukemia ip in BDF1 mice, survival T/C
Assay: NCI In Vivo Anticancer Drug Screen. Data for tumor model L1210 Leukemia (intraperitoneal) in B6D2F1 (BDF1) mice
Conditions: endpoint: mean survival time, higher = longer survival
How it was run: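 Read-out is survival time, reported as the treated-group measurement over the vehicle-control measurement.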

[1] = dose: 100.0 mg/kg/injection, schedule: Q04DX003 (ip), vehicle: Klucel (hydroxypropylcellulose) (HPC)
[2] = dose: 200.0 mg/kg/injection, schedule: Q04DX003 (ip), vehicle: Klucel (hydroxypropylcellulose) (HPC)
[3] = dose: 400.0 mg/kg/injection, schedule: Q04DX003 (ip), vehicle: Klucel (hydroxypropylcellulose) (HPC)
[4] = dose: 100.0 mg/kg/injection, schedule: Q01DX009 (ip), vehicle: Klucel (hydroxypropylcellulose) (HPC)
[5] = dose: 200.0 mg/kg/injection, schedule: Q01DX009 (ip), vehicle: Klucel (hydroxypropylcellulose) (HPC)
[6] = dose: 400.0 mg/kg/injection, schedule: Q01DX009 (ip), vehicle: Klucel (hydroxypropylcellulose) (HPC)
[7] = dose: 100.0 mg/kg/injection, schedule: Q01DX009 (ip), vehicle: saline with Tween-80
[8] = dose: 100.0 mg/kg/injection, schedule: Q04DX003 (ip), vehicle: saline with Tween-80
[9] = dose: 200.0 mg/kg/injection, schedule: Q01DX009 (ip), vehicle: saline with Tween-80
[10] = dose: 200.0 mg/kg/injection, schedule: Q04DX003 (ip), vehicle: saline with Tween-80
[11] = dose: 400.0 mg/kg/injection, schedule: Q04DX003 (ip), vehicle: saline with Tween-80
[12] = dose: 100.0 mg/kg/injection, schedule: Q04DX002 (ip), vehicle: Klucel (hydroxypropylcellulose) (HPC)
[13] = dose: 200.0 mg/kg/injection, schedule: Q04DX002 (ip), vehicle: Klucel (hydroxypropylcellulose) (HPC)

Measured: T/C

COc1ccc([N+](=O)[O-])cc1NC(=O)c1ccc2c(c1)C(=O)OC2=O
inactive: dose: 6.25 mg/kg/injection, schedule: Q01DX009 (ip), vehicle: gum acacia 93 % of control | dose: 12.5 mg/kg/injection, schedule: Q01DX009 (ip), vehicle: gum acacia 88 % of control | dose: 25.0 mg/kg/injection, schedule: Q01DX009 (ip), vehicle: gum acacia 87 % of control | dose: 50.0 mg/kg/injection, schedule: Q01DX009 (ip), vehicle: gum acacia 86 % of control | dose: 200.0 mg/kg/injection, schedule: Q01DX009 (ip), vehicle: gum acacia 88 % of control

CCC(C(OC(=O)Nc1ccc(Cl)c(Cl)c1)c1ccc(Cl)cc1)C(O)(C(F)(F)F)C(F)(F)F (centres undefined)
inactive: [1] 98 % of control | [2] 100 % of control | [3] 98 % of control

CN(CCNC(=O)C1CCCCC1C(=O)O)c1ccccc1 (centres undefined)
inactive: [4] 98 % of control | [5] 92 % of control | [6] 96 % of control

CCOC(=O)C(=CN1CCOCC1)C(=O)OCC
inactive: [7] 100 % of control | [8] 120 % of control | [9] 100 % of control | [10] 102 % of control | dose: 400.0 mg/kg/injection, schedule: Q01DX009 (ip), vehicle: saline with Tween-80 100 % of control | [11] 98 % of control

CCc1ccc(NS(=O)(=O)c2ccc3ccccc3c2)cc1
inactive: [4] 107 % of control | [5] 107 % of control | [6] 98 % of control

Oc1c(Br)ccc2c(O)c(Br)ccc12
inactive: [8] 87 % of control | dose: 118.0 mg/kg/injection, schedule: Q01DX009 (ip), vehicle: saline with Tween-80 107 % of control | [10] 92 % of control | dose: 235.0 mg/kg/injection, schedule: Q01DX009 (ip), vehicle: saline with Tween-80 103 % of control | [11] 95 % of control | dose: 470.0 mg/kg/injection, schedule: Q01DX009 (ip), vehicle: saline with Tween-80 103 % of control

CC(=O)NN(c1ccc([N+](=O)[O-])cc1)c1ccc([N+](=O)[O-])cc1
inactive: dose: 50.0 mg/kg/injection, schedule: Q01DX009 (ip), vehicle: Klucel (hydroxypropylcellulose) (HPC) 97 % of control | [4] 90 % of control | [1] 93 % of control | [2] 95 % of control

O=C1CCCC(=O)CCC1
inactive: dose: 50.0 mg/kg/injection, schedule: Q04DX002 (ip), vehicle: saline 93 % of control | dose: 100.0 mg/kg/injection, schedule: Q04DX002 (ip), vehicle: saline 93 % of control | dose: 200.0 mg/kg/injection, schedule: Q04DX002 (ip), vehicle: saline 104 % of control

C(#CCOc1ccccc1)COc1ccccc1
inactive: [8] 97 % of control | [10] 97 % of control | [11] 97 % of control

O=C(Cc1ccccc1)C(c1ccccc1)C(c1ccccc1)c1ccccc1 (centres undefined)
inactive: dose: 100.0 mg/kg/injection, schedule: Q04DX002 (ip), vehicle: saline with Tween-80 96 % of control | dose: 200.0 mg/kg/injection, schedule: Q04DX002 (ip), vehicle: saline with Tween-80 111 % of control | dose: 400.0 mg/kg/injection, schedule: Q04DX002 (ip), vehicle: saline with Tween-80 107 % of control

Cc1coc(NS(=O)(=O)c2ccc(N=Nc3c(N)[nH]c(=O)[nH]c3=O)cc2)c1C
inactive: dose: 100.0 mg/kg/injection, schedule: Q01DX001 (ip), vehicle: saline 103 % of control | dose: 200.0 mg/kg/injection, schedule: Q01DX001 (ip), vehicle: saline 96 % of control | dose: 400.0 mg/kg/injection, schedule: Q01DX001 (ip), vehicle: saline 104 % of control

O=C(Nc1ccc(Cl)cc1)OCC#CCOC(=O)Nc1ccc(Cl)cc1
inactive: dose: 75.0 mg/kg/injection, schedule: Q04DX003 (ip), vehicle: Klucel (hydroxypropylcellulose) (HPC) 93 % of control | dose: 100.0 mg/kg/injection, schedule: Q01DX001 (ip), vehicle: saline with Tween-80 90 % of control | [8] 88 % of control | dose: 150.0 mg/kg/injection, schedule: Q04DX003 (ip), vehicle: Klucel (hydroxypropylcellulose) (HPC) 93 % of control | dose: 200.0 mg/kg/injection, schedule: Q01DX001 (ip), vehicle: saline with Tween-80 88 % of control | dose: 300.0 mg/kg/injection, schedule: Q04DX003 (ip), vehicle: Klucel (hydroxypropylcellulose) (HPC) 98 % of control | dose: 400.0 mg/kg/injection, schedule: Q01DX001 (ip), vehicle: saline with Tween-80 90 % of control | [11] 90 % of control

CCC(CC)=NNC(N)=O
inactive: dose: 25.0 mg/kg/injection, schedule: Q04DX003 (ip), vehicle: Klucel (hydroxypropylcellulose) (HPC) 104 % of control | dose: 50.0 mg/kg/injection, schedule: Q04DX003 (ip), vehicle: Klucel (hydroxypropylcellulose) (HPC) 100 % of control | [1] 103 % of control and 104 % of control

CC1(C)CN1P(=O)(Oc1ccc([N+](=O)[O-])cc1)N1CC1(C)C (centres undefined)
inactive: [12] 110 % of control | [13] 108 % of control

CCOC(=O)c1cnc(SC)nc1Oc1ccccc1F
inactive: [4] 105 % of control | [1] 96 % of control | [5] 96 % of control | [2] 119 % of control | [6] 97 % of control | [3] 91 % of control

CCCCCCCC(=O)N(C(C)C)C(C)C
inactive: dose: 100.0 mg/kg/injection, schedule: Q01DX001 (ip), vehicle: carboxymethylcellulose (CMC) 108 % of control | dose: 100.0 mg/kg/injection, schedule: Q01DX009 (ip), vehicle: carboxymethylcellulose (CMC) 101 % of control and 103 % of control | dose: 100.0 mg/kg/injection, schedule: Q04DX002 (ip), vehicle: carboxymethylcellulose (CMC) 100 % of control | dose: 100.0 mg/kg/injection, schedule: Q04DX003 (ip), vehicle: carboxymethylcellulose (CMC) 100 % of control | dose: 200.0 mg/kg/injection, schedule: Q01DX001 (ip), vehicle: carboxymethylcellulose (CMC) 98 % of control | dose: 200.0 mg/kg/injection, schedule: Q01DX009 (ip), vehicle: carboxymethylcellulose (CMC) 93 % of control and 109 % of control | dose: 200.0 mg/kg/injection, schedule: Q04DX002 (ip), vehicle: carboxymethylcellulose (CMC) 89 % of control | dose: 200.0 mg/kg/injection, schedule: Q04DX003 (ip), vehicle: carboxymethylcellulose (CMC) 102 % of control | dose: 400.0 mg/kg/injection, schedule: Q01DX001 (ip), vehicle: carboxymethylcellulose (CMC) 96 % of control | dose: 400.0 mg/kg/injection, schedule: Q01DX009 (ip), vehicle: carboxymethylcellulose (CMC) 103 % of control and 111 % of control | dose: 400.0 mg/kg/injection, schedule: Q04DX002 (ip), vehicle: carboxymethylcellulose (CMC) 96 % of control | dose: 400.0 mg/kg/injection, schedule: Q04DX003 (ip), vehicle: carboxymethylcellulose (CMC) 105 % of control

NOCc1nnc(Nc2ccccc2)s1
inactive: [7] 92 % of control | [9] 90 % of control

CCCCCCCCCC(CCCCCCCC)SC(C)=O (centres undefined)
inactive: [12] 108 % of control | [13] 103 % of control | dose: 400.0 mg/kg/injection, schedule: Q04DX002 (ip), vehicle: Klucel (hydroxypropylcellulose) (HPC) 103 % of control

CCN(CC)CCn1cnc2cc([N+](=O)[O-])ccc21
inactive: dose: 20.0 mg/kg/injection, schedule: Q01DX001 (ip), vehicle: Klucel (hydroxypropylcellulose) (HPC) 101 % of control | dose: 40.0 mg/kg/injection, schedule: Q01DX001 (ip), vehicle: Klucel (hydroxypropylcellulose) (HPC) 98 % of control

Cc1cc2c(C(C)C)c(O)c(O)c(C=O)c2c(O)c1-c1c(C)cc2c(C(C)C)c(O)c(O)c(C=O)c2c1O
inactive: dose: 0.25 mg/kg/injection, schedule: Q01DX009 (ip), vehicle: saline 105 % of control | dose: 0.5 mg/kg/injection, schedule: Q01DX009 (ip), vehicle: saline 110 % of control | dose: 1.0 mg/kg/injection, schedule: Q01DX009 (ip), vehicle: saline 106 % of control | dose: 2.0 mg/kg/injection, schedule: Q01DX009 (ip), vehicle: saline 106 % of control | dose: 4.0 mg/kg/injection, schedule: Q01DX009 (ip), vehicle: saline 108 % of control | dose: 8.0 mg/kg/injection, schedule: Q01DX009 (ip), vehicle: saline 101 % of control

CCOC(=O)C1=C(C)NC(C)=C(C(=O)OCC)C1c1ccccc1Cl
inactive: dose: 100.0 mg/kg/injection, schedule: Q04DX003 (ip), vehicle: saline 97 % of control | dose: 200.0 mg/kg/injection, schedule: Q04DX003 (ip), vehicle: saline 117 % of control | dose: 400.0 mg/kg/injection, schedule: Q04DX003 (ip), vehicle: saline 87 % of control
